System: not listed separately
Assay: Volume of distribution after intravenous administration was evaluated in rat
Assay type: ADME, organism-based
Details: in vivo, read-out: Vdss

Compound | Vd [L/kg]
COc1ccc(NS(=O)(=O)C(F)(F)F)cc1C[C@H]1[C@@H](O)c2cc(OCc3ccc4ccc(Cl)cc4n3)ccc2OC1(C)C | 1.6
COc1ccc(NS(=O)(=O)C(F)(F)F)cc1C[C@H]1[C@@H](O)c2cc(OCc3nc4cc(F)c(F)cc4s3)ccc2OC1(C)C | 3.8
O=C(O)c1cccc(C[C@@H]2COc3ccc(OCc4nc5cc(F)ccc5s4)cc3[C@@H]2O)c1 | 0.4

System: Rattus norvegicus
Assay: Hepatic clearance after intravenous administration was evaluated in rat
Assay type: ADME, organism-based, Liver
Details: in vivo

Compound | Clp [mL/min/kg]
COc1ccc(NS(=O)(=O)C(F)(F)F)cc1C[C@H]1[C@@H](O)c2cc(OCc3ccc4ccc(Cl)cc4n3)ccc2OC1(C)C | 6.7
COc1ccc(NS(=O)(=O)C(F)(F)F)cc1C[C@H]1[C@@H](O)c2cc(OCc3nc4cc(F)c(F)cc4s3)ccc2OC1(C)C | 16
O=C(O)c1cccc(C[C@@H]2COc3ccc(OCc4nc5cc(F)ccc5s4)cc3[C@@H]2O)c1 | 3.3

System: not listed separately
Assay: Half-life was evaluated in plasma of rat
Assay type: ADME, organism-based
Details: not given

Compound | half-life [h]
COc1ccc(NS(=O)(=O)C(F)(F)F)cc1C[C@H]1[C@@H](O)c2cc(OCc3ccc4ccc(Cl)cc4n3)ccc2OC1(C)C | 3.6
COc1ccc(NS(=O)(=O)C(F)(F)F)cc1C[C@H]1[C@@H](O)c2cc(OCc3nc4cc(F)c(F)cc4s3)ccc2OC1(C)C | 3.9
O=C(O)c1cccc(C[C@@H]2COc3ccc(OCc4nc5cc(F)ccc5s4)cc3[C@@H]2O)c1 | 1.3

Molecular target: T1, Cysteinyl leukotriene receptor 1 (Cavia porcellus, UniProt Q2NNR5)
T1 sequence (Q2NNR5 whole entry): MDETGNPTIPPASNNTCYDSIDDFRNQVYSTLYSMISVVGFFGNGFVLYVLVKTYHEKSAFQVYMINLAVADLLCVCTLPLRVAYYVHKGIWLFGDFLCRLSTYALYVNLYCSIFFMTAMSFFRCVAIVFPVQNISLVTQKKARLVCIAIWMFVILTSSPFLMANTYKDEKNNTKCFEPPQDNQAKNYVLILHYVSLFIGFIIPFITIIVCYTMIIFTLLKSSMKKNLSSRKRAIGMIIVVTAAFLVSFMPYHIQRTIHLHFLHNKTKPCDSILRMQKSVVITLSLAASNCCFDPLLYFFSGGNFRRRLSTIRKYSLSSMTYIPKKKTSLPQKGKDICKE
Assay: Antagonism of Cysteinyl leukotriene receptor 1 from guinea pig lung membranes
Assay type: functional, tissue-based
Details: not given

Compound | Ki [nM]
CC1(C)Oc2ccc(OCc3nc4cc(F)c(F)cc4s3)cc2[C@H](O)[C@@H]1Cc1cc(NS(=O)(=O)C(F)(F)F)ccc1Cl | 4
CC1(C)Oc2ccc(OCc3nc4cc(F)c(F)cc4s3)cc2[C@H](O)[C@@H]1Cc1cccc(NS(=O)(=O)C(F)(F)F)c1 | 7
O=C(O)c1cccc(C[C@@H]2COc3ccc(OCc4nc5cc(F)ccc5s4)cc3[C@@H]2O)c1 | 14

Next, values leading:

Ki [nM] | Compound
4 | COc1ccc(NS(=O)(=O)C(F)(F)F)cc1C[C@H]1[C@@H](O)c2cc(OCc3ccc4ccc(Cl)cc4n3)ccc2OC1(C)C
2 | COc1ccc(NS(=O)(=O)C(F)(F)F)cc1C[C@H]1[C@@H](O)c2cc(OCc3nc4cc(F)c(F)cc4s3)ccc2OC1(C)C
5 | COc1ccc(NS(=O)(=O)C(F)(F)F)cc1C[C@H]1[C@@H](O)c2cc(/C=C/c3ccc4ccc(Cl)cc4n3)ccc2OC1(C)C

System: Cavia porcellus
Assay: Compound was tested for its ability to block antigen induced airway obstruction in guinea pig at dose 1 mg/kg at 1 hr
Assay type: functional
Details: not given

Compound | inhibition in vivo at 1 mg/kg [%]
COc1ccc(NS(=O)(=O)C(F)(F)F)cc1C[C@H]1[C@@H](O)c2cc(OCc3ccc4ccc(Cl)cc4n3)ccc2OC1(C)C | 57.9
O=C(Nc1cccc2c(=O)cc(-c3nnn[nH]3)oc12)c1ccc(OCCCCc2ccccc2)cc1 | 50.1
C[C@H]1Oc2ccc(OCc3nc4cc(F)ccc4s3)cc2[C@H](O)[C@@H]1Cc1cccc(NS(=O)(=O)C(F)(F)F)c1 | 66.5

System: Cavia porcellus
Assay: Compound was tested for its ability to block antigen induced airway obstruction in guinea pig at dose 1 mg/kg at 2 hr
Assay type: functional
Details: not given

Compound | inhibition in vivo at 1 mg/kg [%]
CC1(C)Oc2ccc(OCc3nc4cc(F)c(F)cc4s3)cc2[C@H](O)[C@@H]1Cc1cccc(NS(=O)(=O)C(F)(F)F)c1 | 45.8
COc1ccc(NS(=O)(=O)C(F)(F)F)cc1C[C@H]1[C@@H](O)c2cc(/C=C/c3ccc4ccc(Cl)cc4n3)ccc2OC1(C)C | 40.8
COc1ccc(NS(=O)(=O)C(F)(F)F)cc1C[C@H]1[C@@H](O)c2cc(OCc3nc4cc(F)c(F)cc4s3)ccc2OC1(C)C | 37.8
O=C(O)c1cccc(C[C@@H]2COc3ccc(OCc4nc5cc(F)ccc5s4)cc3[C@@H]2O)c1 | 56
COc1cc(C(=O)NS(=O)(=O)c2ccccc2C)ccc1Cc1cn(C)c2ccc(NC(=O)OC3CCCC3)cc12 [ZAFIRLUKAST] | 51.6

Organism: Homo sapiens
Assay: Compound was tested for its ability to inhibit calcium influx in human U937 cells
Assay type: functional, cell-based
Details: U-937

Compound | IC50 [nM]
CC1(C)Oc2ccc(OCc3nc4cc(F)c(F)cc4s3)cc2[C@H](O)[C@@H]1Cc1cc(NS(=O)(=O)C(F)(F)F)ccc1Cl | 17
O=C(Nc1cccc2c(=O)cc(-c3nnn[nH]3)oc12)c1ccc(OCCCCc2ccccc2)cc1 | 1
C[C@H]1Oc2ccc(OCc3nc4cc(F)ccc4s3)cc2[C@H](O)[C@@H]1Cc1cccc(NS(=O)(=O)C(F)(F)F)c1 | 8
CC1(C)Oc2ccc(OCc3nc4cc(F)c(F)cc4s3)cc2[C@H](O)[C@@H]1Cc1cccc(NS(=O)(=O)C(F)(F)F)c1 | 2
O=C(O)c1cccc(C[C@@H]2COc3ccc(OCc4nc5cc(F)ccc5s4)cc3[C@@H]2O)c1 | 310
COc1cc(C(=O)NS(=O)(=O)c2ccccc2C)ccc1Cc1cn(C)c2ccc(NC(=O)OC3CCCC3)cc12 [ZAFIRLUKAST] | 1

Compounds with a lower IC50, results first:

IC50 [nM] | Compound
0.5 | COc1ccc(NS(=O)(=O)C(F)(F)F)cc1C[C@H]1[C@@H](O)c2cc(OCc3ccc4ccc(Cl)cc4n3)ccc2OC1(C)C
0.3 | COc1ccc(NS(=O)(=O)C(F)(F)F)cc1C[C@H]1[C@@H](O)c2cc(OCc3nc4cc(F)c(F)cc4s3)ccc2OC1(C)C
0.2 | COc1ccc(NS(=O)(=O)C(F)(F)F)cc1C[C@H]1[C@@H](O)c2cc(/C=C/c3ccc4ccc(Cl)cc4n3)ccc2OC1(C)C
